Test [1] can be described thus: growth inhibition of yeast DHODH-expressing 3D7 parasites – SYBR Green, dry powder samples, dose response (AID 1159570).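 Also: parasite growth measured after 72 hours of compound exposure.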 It counts as functional, cell-based.
Test [2] in a line: toxicity to human HepG2 hepatoma cells – cell-based, plate reader, dry powder samples, cytotoxicity control, dose response (AID 1159569).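 Also: inhibitor potency with signal falling toward the positive control level.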 It counts as functional.
Test [3] in a line: P. falciparum Dd2 growth inhibitors, dose response, SYBR Green, cherry-picked samples (AID 1159567). It counts as functional, cell-based.
Test [4] can be described thus: Dd2 malaria parasite growth inhibition potency – SYBR Green, dry powder samples, dose response (AID 1159566).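 Also: potency for growth inhibition with lower SYBR green DNA signal.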 It is filed as functional, cell-based.
Test [5] can be described thus: toxicity to human hepatoma HepG2 cells – cell-based, cherry-picked samples, cytotoxicity control, dose response (AID 1159577). It counts as functional.
The nature of test [6]: growth inhibition of PfATP4-mutant resistant parasites – NITD609-resistant line, SYBR Green, dry powder, dose response (AID 1159571).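 Also: parasites synchronized at ring stage by sorbitol before testing.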 It is filed as functional, cell-based.
For test [7], the target named is Peroxisome proliferator-activated receptor gamma/Nuclear receptor corepressor 2 (Homo sapiens, UniProt P37231+Q9Y618). The test can be described thus: Counterscreen for NR2E3 inverse agonists: TR-FRET-based biochemical high throughput dose response assay to identify inverse agonists of the interaction between peroxisome proliferator-activated receptor gamma (PPARg) and nuclear receptor co-repressor 2 (NCOR2). It counts as functional. On the technique in general: A counterscreen serves to expose hits that act by an unwanted route or on another target.

For test [8], the target named is Photoreceptor-specific nuclear receptor (Homo sapiens, UniProt Q9Y5X4). The test can be described thus: ligands suppressing NR2E3 nuclear receptor activity – biochemical, TR-FRET, dose response (AID 463256). It is filed as functional.
The target of test [9] is 26S proteasome non-ATPase regulatory subunit 14 (Homo sapiens, UniProt O00487). The test can be described thus: inhibition of proteasome subunit RPN11 – biochemical, fluorescence polarization, uHTS hits, confirmation (AID 602368). It is filed as functional. (Polarisation of emitted light reports the rotation of a fluorescent probe.)
The target in test [10] is 72 kDa type IV collagenase (Homo sapiens, UniProt P08253). The test is described as follows: Dose Response validation of uHTS RPN11 inhibitor hits using a MMP-2 Fluorescence assay. It is filed as functional.
A further test has as its target Prothrombin (Bos taurus, UniProt P00735). The test is described as follows: thrombin protease inhibitors – biochemical, fluorescence polarization, uHTS hits, dose response (AID 602369). It is filed as functional.
The next test relates to Vero. The test can be described thus: inhibition of WNV-induced cytopathic effect – cell-based, CPE readout (AID 1621). It counts as functional. The conditions noted are these: Chlorocebus sabaeus.
Test [11] is described as follows: viability inhibitors of stage V gametocytes – luminescence, dose response (AID 1117278).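 Also: gametocytes exposed to compound for 24 hours.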 It counts as functional, cell-based.
A short description of test [12]: viability loss in human Jurkat cells – cell-based, luminescence, cytotoxicity control for P. falciparum gametocyte viability project, dose response (AID 1117277).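 Also: potency reflects loss of cellular ATP meaning fewer viable cells.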 It is filed as functional.
Test [13] has as its target T1, Mannose-6-phosphate isomerase (Homo sapiens, UniProt P34949).
T1 sequence (P34949 whole entry): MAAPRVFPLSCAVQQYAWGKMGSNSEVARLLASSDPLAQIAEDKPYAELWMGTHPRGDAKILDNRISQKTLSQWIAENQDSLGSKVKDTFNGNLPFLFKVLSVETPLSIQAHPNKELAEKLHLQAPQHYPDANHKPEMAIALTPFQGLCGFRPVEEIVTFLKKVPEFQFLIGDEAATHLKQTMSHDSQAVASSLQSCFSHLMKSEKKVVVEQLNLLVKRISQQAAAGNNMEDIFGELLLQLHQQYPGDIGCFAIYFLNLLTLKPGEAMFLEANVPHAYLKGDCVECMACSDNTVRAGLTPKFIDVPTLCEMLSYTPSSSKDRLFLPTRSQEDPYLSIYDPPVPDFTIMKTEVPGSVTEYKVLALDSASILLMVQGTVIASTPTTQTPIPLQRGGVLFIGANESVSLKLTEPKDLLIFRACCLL
The test can be described thus: MPI inhibition at elevated mannose 6-phosphate – biochemical, fluorescence intensity, high mannose 6-phosphate, primary screen (AID 1220).

Test [14] can be described thus: NIH-3T3 fibroblast cytotoxicity, dose response, cytotoxicity control, cell-based, fluorescence, Alamar Blue, secondary assay (AID 2327).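 Also: NIH-3T3 mouse fibroblasts cultured with fluconazole at 8 µg/mL.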 It counts as functional.
The nature of test [15]: fluconazole-exposed Candida albicans growth modulators – fluorescence, retest, confirmation (AID 2467). It counts as functional, cell-based.
The next test deals with Cytochrome P450 2C19 (Homo sapiens, UniProt P33261). The test can be described thus: qHTS Assay for Inhibitors and Substrates of Cytochrome P450 2C19. [Related pubchem assays: 410 ]. It counts as ADME. The conditions noted are these: read-out: Potency. Background: qHTS replaces the single test concentration by a dilution series.

Calls of active or inactive are those of the source. Where only a bound is given, the exact number is not on record here.

Chain of Photoreceptor-specific nuclear receptor (Q9Y5X4 whole entry): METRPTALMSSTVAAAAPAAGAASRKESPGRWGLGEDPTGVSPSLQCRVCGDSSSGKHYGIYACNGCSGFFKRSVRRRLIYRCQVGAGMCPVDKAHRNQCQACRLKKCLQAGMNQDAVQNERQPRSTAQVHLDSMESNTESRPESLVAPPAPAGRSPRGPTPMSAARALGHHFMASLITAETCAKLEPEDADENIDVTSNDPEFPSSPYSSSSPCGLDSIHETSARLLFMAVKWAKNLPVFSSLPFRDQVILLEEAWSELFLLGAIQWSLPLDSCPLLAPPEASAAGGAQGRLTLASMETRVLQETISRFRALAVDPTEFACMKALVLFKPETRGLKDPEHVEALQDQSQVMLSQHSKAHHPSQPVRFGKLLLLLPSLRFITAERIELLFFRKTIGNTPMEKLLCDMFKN
Chain of Peroxisome proliferator-activated receptor gamma/Nuclear receptor corepressor 2 (P37231 whole entry): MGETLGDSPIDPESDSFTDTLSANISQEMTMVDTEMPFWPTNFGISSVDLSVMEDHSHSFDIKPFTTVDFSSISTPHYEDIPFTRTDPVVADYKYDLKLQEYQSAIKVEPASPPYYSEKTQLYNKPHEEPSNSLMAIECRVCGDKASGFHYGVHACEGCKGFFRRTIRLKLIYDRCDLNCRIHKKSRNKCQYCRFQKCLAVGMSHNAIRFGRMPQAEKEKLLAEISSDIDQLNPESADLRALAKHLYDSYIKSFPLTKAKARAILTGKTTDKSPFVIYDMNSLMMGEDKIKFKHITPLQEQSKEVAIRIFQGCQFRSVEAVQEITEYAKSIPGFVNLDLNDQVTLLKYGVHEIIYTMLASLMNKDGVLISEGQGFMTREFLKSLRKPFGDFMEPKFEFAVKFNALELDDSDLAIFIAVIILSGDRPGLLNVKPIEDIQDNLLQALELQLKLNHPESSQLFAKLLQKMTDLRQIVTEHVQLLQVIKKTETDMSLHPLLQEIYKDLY
Chain of Peroxisome proliferator-activated receptor gamma/Nuclear receptor corepressor 2 (Q9Y618 whole entry): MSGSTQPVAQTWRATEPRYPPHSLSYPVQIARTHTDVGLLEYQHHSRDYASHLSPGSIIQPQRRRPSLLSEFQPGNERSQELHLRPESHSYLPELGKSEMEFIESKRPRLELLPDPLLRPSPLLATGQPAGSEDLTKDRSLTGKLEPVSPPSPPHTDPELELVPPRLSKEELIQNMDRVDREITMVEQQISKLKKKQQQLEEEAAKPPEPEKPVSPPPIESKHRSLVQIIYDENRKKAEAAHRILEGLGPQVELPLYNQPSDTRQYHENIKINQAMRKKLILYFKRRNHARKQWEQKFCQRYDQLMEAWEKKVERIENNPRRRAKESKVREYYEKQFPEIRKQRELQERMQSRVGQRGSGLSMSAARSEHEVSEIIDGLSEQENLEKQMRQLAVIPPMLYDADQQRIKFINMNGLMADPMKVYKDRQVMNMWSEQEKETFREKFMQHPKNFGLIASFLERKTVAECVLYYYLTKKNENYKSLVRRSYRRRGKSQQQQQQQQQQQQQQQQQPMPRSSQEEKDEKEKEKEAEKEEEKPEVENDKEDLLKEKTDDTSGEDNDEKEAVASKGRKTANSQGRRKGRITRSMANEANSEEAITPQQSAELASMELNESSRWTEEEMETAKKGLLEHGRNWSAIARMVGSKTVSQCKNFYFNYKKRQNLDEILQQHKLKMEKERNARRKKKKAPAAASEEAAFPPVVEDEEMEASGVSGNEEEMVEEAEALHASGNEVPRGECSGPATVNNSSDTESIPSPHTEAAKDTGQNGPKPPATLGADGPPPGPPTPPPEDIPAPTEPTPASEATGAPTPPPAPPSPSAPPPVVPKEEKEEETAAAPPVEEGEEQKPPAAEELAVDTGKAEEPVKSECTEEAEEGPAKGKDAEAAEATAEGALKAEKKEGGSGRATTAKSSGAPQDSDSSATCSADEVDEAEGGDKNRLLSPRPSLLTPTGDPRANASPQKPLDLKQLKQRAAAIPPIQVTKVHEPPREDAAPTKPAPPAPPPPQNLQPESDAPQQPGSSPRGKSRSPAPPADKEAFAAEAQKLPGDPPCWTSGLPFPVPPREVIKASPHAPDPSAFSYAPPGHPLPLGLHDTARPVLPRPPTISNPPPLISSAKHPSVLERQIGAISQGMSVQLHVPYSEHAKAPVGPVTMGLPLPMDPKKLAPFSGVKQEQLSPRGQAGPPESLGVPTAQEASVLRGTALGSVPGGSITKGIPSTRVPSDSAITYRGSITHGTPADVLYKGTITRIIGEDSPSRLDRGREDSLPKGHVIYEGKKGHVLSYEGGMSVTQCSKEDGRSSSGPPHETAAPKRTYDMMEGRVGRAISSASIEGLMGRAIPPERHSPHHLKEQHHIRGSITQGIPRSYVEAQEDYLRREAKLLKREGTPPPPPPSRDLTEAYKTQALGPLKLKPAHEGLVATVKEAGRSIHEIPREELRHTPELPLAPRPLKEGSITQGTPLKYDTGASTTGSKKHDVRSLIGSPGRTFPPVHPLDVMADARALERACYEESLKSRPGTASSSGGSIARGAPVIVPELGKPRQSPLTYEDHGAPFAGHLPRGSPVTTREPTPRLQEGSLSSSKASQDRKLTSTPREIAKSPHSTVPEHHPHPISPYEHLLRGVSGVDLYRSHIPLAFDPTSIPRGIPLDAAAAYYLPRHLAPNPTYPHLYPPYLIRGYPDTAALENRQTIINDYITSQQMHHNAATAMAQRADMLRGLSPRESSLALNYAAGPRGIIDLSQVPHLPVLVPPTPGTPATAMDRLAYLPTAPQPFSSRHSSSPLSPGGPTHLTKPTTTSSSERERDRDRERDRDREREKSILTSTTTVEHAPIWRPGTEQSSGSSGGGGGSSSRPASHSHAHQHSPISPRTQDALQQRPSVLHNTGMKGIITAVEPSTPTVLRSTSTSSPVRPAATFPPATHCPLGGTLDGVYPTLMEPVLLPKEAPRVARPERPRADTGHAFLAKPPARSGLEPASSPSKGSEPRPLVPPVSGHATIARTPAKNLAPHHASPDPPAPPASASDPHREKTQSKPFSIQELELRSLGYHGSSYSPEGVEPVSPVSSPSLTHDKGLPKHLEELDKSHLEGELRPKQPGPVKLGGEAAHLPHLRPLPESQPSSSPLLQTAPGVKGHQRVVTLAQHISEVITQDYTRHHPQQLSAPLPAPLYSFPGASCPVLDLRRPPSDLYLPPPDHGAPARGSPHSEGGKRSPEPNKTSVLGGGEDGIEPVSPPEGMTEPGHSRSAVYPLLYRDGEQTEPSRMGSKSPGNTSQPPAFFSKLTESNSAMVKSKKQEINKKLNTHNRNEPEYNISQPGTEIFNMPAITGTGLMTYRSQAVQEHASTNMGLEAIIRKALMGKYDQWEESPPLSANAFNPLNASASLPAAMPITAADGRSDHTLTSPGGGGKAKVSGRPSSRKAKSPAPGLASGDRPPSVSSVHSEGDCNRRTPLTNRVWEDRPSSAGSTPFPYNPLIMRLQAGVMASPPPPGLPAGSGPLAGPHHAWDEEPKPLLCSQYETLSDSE
Chain of Cytochrome P450 2C19 (P33261 whole entry): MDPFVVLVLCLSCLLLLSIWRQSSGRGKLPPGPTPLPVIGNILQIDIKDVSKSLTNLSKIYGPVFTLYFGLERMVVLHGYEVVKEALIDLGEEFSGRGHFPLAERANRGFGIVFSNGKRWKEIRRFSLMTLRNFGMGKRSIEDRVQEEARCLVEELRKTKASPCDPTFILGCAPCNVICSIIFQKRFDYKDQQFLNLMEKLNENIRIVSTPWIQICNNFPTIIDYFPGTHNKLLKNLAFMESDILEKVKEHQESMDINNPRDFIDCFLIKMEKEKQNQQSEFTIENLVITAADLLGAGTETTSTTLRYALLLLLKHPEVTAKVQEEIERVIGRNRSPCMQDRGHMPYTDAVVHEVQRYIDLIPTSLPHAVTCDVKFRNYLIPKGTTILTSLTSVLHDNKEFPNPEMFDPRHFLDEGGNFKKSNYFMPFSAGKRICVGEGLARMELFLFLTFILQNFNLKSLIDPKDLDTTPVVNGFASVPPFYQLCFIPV
Chain of 26S proteasome non-ATPase regulatory subunit 14 (O00487 whole entry): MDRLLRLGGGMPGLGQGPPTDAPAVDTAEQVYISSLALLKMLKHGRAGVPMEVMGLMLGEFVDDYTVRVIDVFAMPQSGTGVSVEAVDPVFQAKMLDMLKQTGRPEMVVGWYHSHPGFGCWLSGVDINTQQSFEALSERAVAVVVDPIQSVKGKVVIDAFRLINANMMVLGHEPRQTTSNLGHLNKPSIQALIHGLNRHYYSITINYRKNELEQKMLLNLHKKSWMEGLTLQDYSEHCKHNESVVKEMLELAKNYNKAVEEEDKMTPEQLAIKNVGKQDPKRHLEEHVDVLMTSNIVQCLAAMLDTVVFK
Chain of 72 kDa type IV collagenase (P08253 whole entry): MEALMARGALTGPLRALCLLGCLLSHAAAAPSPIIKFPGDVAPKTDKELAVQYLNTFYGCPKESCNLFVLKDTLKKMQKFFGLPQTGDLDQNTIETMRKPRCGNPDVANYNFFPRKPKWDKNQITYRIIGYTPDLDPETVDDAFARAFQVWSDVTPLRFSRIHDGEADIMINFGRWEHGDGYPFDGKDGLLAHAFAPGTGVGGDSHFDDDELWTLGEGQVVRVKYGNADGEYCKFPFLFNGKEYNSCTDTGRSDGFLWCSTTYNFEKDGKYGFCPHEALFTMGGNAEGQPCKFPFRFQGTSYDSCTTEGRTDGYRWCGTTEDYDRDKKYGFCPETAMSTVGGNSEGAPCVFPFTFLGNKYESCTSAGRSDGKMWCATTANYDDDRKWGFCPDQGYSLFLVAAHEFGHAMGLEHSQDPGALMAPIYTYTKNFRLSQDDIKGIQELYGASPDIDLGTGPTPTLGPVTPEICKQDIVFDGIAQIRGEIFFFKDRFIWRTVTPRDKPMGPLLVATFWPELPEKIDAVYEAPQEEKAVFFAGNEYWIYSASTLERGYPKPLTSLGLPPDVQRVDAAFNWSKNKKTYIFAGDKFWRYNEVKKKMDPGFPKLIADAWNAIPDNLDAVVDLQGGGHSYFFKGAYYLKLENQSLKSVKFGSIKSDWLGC

For `Cc1nc(N2[C@H](CO)[C@H](c3ccccc3)[C@H]2CNCC2CCCCC2)sc1C`, the AC50 in test [1] was 1.03 µM (active); in test [2], 71.2 µM (active); in test [3], 1.13 µM (active); in test [4] it was 0.595 µM (active); in test [5] it was > 42 µM (inactive); in [6], 0.691 µM (active).
What is called IC50 is the point on the concentration scale where inhibition reaches its midpoint. Consider `Cc1c(NC(=O)c2cccc(-c3cc4ccccc4oc3=O)c2)cccc1-c1nc2ncccc2o1`, for which the IC50 was 1.72 µM (active) in test [7]; 2.33 µM (active) in [8]; 24.1 µM (active) in test [9]; > 100 µM (inactive) in test [10]; 92 µM (active) on Prothrombin.
Regarding `C[C@H]1CN([C@@H](C)CO)S(=O)(=O)c2ccc(C#CC3CCCCC3)cc2O[C@H]1CN(C)C`, the AC50 in test [1] was 8.69 µM (active); in test [2], > 100 µM (inactive); in [4] it was 4.6 µM (active); in test [6], 2.42 µM (active).
For `CCOC(=O)c1[nH]c2ccccc2c1NC(=O)CC(C)(C)C`, the IC50 in the test with Vero was 22.2 µM (active).
Regarding `Cc1ccc(NCC(O)C(O)C(O)CO)cc1C` (configuration not stated), the IC50 in test [11] is > 109 µM (inactive); in test [12] it was > 83.3 µM (inactive).
In the case of `Nc1c(N2CCOCC2)cc(Cl)c2nonc12`, in test [13], the IC50 is given as > 50 µM (not active).
Usually EC50 stands for the midpoint of the concentration-response curve. For the molecule `CC(=O)c1cnc(Nc2cccc(Cl)c2Cl)s1`, the values for the EC50 in [14] and in test [15] were > 160 µM (inactive) and > 38 µM (not active), respectively. Further, the IC50 was > 109 µM (inactive) in test [11] and > 83.3 µM (inactive) in [12].
With `O=C(Cc1ccc(Cl)cc1)Nc1ccc2oc(-c3ccncc3)nc2c1`, the IC50 in [7] is 5.54 µM (active); in [8] it was 4.29 µM (active).
Regarding `C=C[C@@]1(C)C=C2CC[C@@H]3[C@](C)(CCC[C@@]3(C)C(=O)O)[C@H]2CC1` [PIMARIC ACID], at Cytochrome P450 2C19, the AC50 is 7.94 µM (inconclusive).
Turning to `CC(=O)c1ccc(C2C=CC(Oc3ccc(F)cc3C)C(CO)O2)cc1` (configuration not stated), the AC50 on Cytochrome P450 2C19 is 6.31 µM (inconclusive).

(Values after ChEMBL document CHEMBL1201862, “PubChem BioAssay data set” (2004).)
